# Values quoted from earlier work as cited in patent US20070014855A1, “STABLE DESLORATADINE COMPOSITIONS” (priority 2005, published 2007).
compound,measurement,setting,value
"Clc1ccc2c(c1)CCc1cccnc1C2=C1CCNCC1 [Desloratadine, 8-chloro-6,11-dihydro-11-(4-piperidylidene)-5H-benzo[5,6]-cyclohepta[1,2-b]pyridine]",solubility in ethanol,ethanol,very soluble
same,solubility in propylene glycol,propylene glycol,very soluble
same,solubility in water,water,slightly soluble
